Assay results: ChEMBL document CHEMBL3627631, “Inactivation of protein tyrosine phosphatases by dietary isothiocyanates” (Bioorg Med Chem Lett, 2015)
The source made the active and inactive calls. The calls are words filed in the database; no cut-off is given here.

How the values were obtained:
[1] = target: T1, Tyrosine-protein phosphatase non-receptor type 1 (Homo sapiens) (UniProt P18031); assay: Inhibition of recombinant human PTP1B catalytic domain (1 to 322 amino acid residues) using pNPP as substrate assessed as p-nitrophenolate release after 10 mins by spectrophotometric analysis in presence of catalase, superoxide dismutase and mannitol
T1 sequence (whole entry): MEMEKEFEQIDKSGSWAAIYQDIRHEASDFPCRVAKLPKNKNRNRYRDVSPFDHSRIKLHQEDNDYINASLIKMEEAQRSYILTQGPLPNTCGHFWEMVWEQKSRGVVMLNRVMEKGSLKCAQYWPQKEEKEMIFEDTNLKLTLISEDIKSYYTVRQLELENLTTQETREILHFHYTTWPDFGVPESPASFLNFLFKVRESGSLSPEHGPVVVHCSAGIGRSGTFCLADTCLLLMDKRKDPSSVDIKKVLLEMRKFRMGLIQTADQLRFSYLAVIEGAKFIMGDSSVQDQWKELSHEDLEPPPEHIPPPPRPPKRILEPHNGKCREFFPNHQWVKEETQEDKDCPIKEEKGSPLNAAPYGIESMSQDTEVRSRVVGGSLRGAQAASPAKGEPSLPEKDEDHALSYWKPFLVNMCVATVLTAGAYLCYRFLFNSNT

[2] = target: T1, Tyrosine-protein phosphatase non-receptor type 1 (Homo sapiens); assay: Reversible inhibition of recombinant human PTP1B catalytic domain (1 to 322 amino acid residues) in 3,3-dimethylglutarate buffer assessed as inactivation constant kf
[3] = target: T1, Tyrosine-protein phosphatase non-receptor type 1 (Homo sapiens); assay: Inhibition of recombinant human PTP1B catalytic domain (1 to 322 amino acid residues) using pNPP as substrate assessed as p-nitrophenolate release at 500 uM incubated with first aliquot of enzyme for 2000 secs followed by addition of second aliquot of enzyme measured for 1500 secs by spectrophotometric analysis
[4] = target: T2, Tyrosine-protein phosphatase non-receptor type 11 (Homo sapiens) (UniProt Q06124); assay: Inhibition of recombinant human SHP2 catalytic domain (246 to 527 amino acid residues) in 3,3-dimethylglutarate buffer using pNPP as substrate assessed as p-nitrophenolate release by spectrophotometric analysis in presence of reversible, site-directed inhibitor phosphate, arsenate
T2 sequence (whole entry): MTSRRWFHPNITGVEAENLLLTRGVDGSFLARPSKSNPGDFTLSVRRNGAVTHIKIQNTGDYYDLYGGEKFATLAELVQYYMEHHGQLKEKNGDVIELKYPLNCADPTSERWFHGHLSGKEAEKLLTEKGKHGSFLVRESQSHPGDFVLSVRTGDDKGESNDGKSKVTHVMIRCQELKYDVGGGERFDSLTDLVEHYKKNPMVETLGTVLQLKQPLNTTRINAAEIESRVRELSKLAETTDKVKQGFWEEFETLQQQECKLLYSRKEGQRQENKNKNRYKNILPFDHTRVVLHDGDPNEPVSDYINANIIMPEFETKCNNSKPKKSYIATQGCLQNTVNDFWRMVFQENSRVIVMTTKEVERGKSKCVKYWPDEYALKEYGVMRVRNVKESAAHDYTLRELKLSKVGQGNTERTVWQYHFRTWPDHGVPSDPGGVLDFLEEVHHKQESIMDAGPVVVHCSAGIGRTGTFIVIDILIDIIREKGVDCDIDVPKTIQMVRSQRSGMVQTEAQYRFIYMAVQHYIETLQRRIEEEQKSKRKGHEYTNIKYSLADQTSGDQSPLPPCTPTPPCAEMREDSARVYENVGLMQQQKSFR

[5] = target: T1, Tyrosine-protein phosphatase non-receptor type 1 (Homo sapiens); assay: Reversible inhibition of recombinant human PTP1B catalytic domain (1 to 322 amino acid residues) in Tris buffer assessed as inactivation constant kr
[6] = target: T2, Tyrosine-protein phosphatase non-receptor type 11 (Homo sapiens); assay: Inhibition of recombinant human SHP2 catalytic domain (246 to 527 amino acid residues) in Tris buffer using pNPP as substrate assessed as apparent second order rate constant after 10 mins
[7] = Chemical stability of the compound in 3,3-dimethylglutarate buffer containing DTPA, sodium acetate, Tween 80 at 500 uM at pH 7.0 at 30 degC incubated for 2.5 hrs prior to addition of PTP1B; type: physicochemical; conditions: pH 7, 2.5 h
[8] = target: T1, Tyrosine-protein phosphatase non-receptor type 1 (Homo sapiens); assay: Reversible inhibition of recombinant human PTP1B catalytic domain (1 to 322 amino acid residues) in Tris buffer assessed as inactivation constant kf
[9] = Chemical stability of the compound in Bis-Tris and Tris buffer containing DTPA, sodium acetate, Tween 80 at 500 uM at pH 7.0 at 30 degC incubated for 2.5 hrs prior to addition of PTP1B; type: physicochemical; conditions: pH 7, 2.5 h
[10] = target: T1, Tyrosine-protein phosphatase non-receptor type 1 (Homo sapiens); assay: Reversible inhibition of recombinant human PTP1B catalytic domain (1 to 322 amino acid residues) in 3,3-dimethylglutarate buffer assessed as inactivation constant kr
[11] = target: T1, Tyrosine-protein phosphatase non-receptor type 1 (Homo sapiens); assay: Reversible inhibition of recombinant human PTP1B catalytic domain (1 to 322 amino acid residues) measured for 3 hrs by gel filtration assay
[12] = target: T2, Tyrosine-protein phosphatase non-receptor type 11 (Homo sapiens); assay: Inhibition of recombinant human SHP2 catalytic domain (246 to 527 amino acid residues) in 3,3-dimethylglutarate buffer using pNPP as substrate assessed as apparent second order rate constant after 10 mins
[13] = target: T1, Tyrosine-protein phosphatase non-receptor type 1 (Homo sapiens); assay: Inhibition of recombinant human PTP1B catalytic domain (1 to 322 amino acid residues) using pNPP as substrate assessed as p-nitrophenolate release at 200 uM after 10 mins by spectrophotometric analysis in presence of reversible, site-directed inhibitor phosphate, arsenate

Row | SMILES | inhibition [1] | K [2] [M⁻¹ s⁻¹] | inhibition [3] | inhibition [4] | K [5] [×10⁻⁴ /s] | Kapp [6] [M⁻¹ s⁻¹] | Stability [7] | K [8] [M⁻¹ s⁻¹] | Stability [9] | K [10] | inhibition [11] | Kapp [12] [M⁻¹ s⁻¹] | inhibition [13]
1 | C=CCN=C=S [ALLYL ISOTHIOCYANATE] | Active | 2.7 | Active | inactive | 2.3 | 16 | Stable | 2.3 | Unstable | 8.3 ×10⁻⁵ /s | Active | 9 | inactive
2 | C[S+]([O-])CCCCN=C=S (stereo not drawn) | – | 2.4 | – | inactive | – | 3.5 | – | – | – | 1.4 ×10⁻⁴ /s | – | 3.7 | –
